Experimental data: paper PMC8222254, “Self-assembly of an anion receptor with metal-dependent kinase inhibition and potent in vitro anti-cancer properties” (Nature Communications, 2021)
Several values for one entry are separate records, joined by “and”; a condition that tells them apart may be missing. Identical values can stand only once.

How the values were obtained:
Experiment in all cases: Kinase inhibition screen, cell-free 33P ATP assay at 10 μM
Assay type in all cases: biochemical
[1] = target: 140 purified human kinases (Homo sapiens, UniProt O96013)
Sequence of 140 purified human kinases (Homo sapiens, UniProt O96013) (O96013 whole entry): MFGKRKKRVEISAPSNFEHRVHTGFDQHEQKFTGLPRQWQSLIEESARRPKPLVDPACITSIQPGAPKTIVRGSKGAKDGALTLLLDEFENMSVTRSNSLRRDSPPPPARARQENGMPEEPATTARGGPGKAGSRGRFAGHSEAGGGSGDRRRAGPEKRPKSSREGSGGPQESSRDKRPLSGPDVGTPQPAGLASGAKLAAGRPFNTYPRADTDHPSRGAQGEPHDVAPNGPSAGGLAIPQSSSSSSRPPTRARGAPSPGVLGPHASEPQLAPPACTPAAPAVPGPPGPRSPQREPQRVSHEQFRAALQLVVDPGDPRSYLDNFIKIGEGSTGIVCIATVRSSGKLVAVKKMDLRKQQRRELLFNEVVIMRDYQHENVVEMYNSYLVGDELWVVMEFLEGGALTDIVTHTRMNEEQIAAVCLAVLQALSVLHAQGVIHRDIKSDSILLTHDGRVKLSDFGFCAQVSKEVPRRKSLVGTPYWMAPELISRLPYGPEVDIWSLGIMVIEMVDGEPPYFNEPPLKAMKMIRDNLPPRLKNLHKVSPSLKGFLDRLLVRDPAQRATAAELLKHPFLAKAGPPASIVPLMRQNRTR
Procedure, shortened: (§1)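 Radiometric ^33P ATP cell-free format with purified enzymes; both complexes run at 10 μM in duplicate, results plotted on a kinome map via HGNC symbols.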

[2] = target: 140 purified human kinases (Homo sapiens, UniProt P06213); conditions: IR
Sequence of 140 purified human kinases (Homo sapiens, UniProt P06213) (P06213 28-1382): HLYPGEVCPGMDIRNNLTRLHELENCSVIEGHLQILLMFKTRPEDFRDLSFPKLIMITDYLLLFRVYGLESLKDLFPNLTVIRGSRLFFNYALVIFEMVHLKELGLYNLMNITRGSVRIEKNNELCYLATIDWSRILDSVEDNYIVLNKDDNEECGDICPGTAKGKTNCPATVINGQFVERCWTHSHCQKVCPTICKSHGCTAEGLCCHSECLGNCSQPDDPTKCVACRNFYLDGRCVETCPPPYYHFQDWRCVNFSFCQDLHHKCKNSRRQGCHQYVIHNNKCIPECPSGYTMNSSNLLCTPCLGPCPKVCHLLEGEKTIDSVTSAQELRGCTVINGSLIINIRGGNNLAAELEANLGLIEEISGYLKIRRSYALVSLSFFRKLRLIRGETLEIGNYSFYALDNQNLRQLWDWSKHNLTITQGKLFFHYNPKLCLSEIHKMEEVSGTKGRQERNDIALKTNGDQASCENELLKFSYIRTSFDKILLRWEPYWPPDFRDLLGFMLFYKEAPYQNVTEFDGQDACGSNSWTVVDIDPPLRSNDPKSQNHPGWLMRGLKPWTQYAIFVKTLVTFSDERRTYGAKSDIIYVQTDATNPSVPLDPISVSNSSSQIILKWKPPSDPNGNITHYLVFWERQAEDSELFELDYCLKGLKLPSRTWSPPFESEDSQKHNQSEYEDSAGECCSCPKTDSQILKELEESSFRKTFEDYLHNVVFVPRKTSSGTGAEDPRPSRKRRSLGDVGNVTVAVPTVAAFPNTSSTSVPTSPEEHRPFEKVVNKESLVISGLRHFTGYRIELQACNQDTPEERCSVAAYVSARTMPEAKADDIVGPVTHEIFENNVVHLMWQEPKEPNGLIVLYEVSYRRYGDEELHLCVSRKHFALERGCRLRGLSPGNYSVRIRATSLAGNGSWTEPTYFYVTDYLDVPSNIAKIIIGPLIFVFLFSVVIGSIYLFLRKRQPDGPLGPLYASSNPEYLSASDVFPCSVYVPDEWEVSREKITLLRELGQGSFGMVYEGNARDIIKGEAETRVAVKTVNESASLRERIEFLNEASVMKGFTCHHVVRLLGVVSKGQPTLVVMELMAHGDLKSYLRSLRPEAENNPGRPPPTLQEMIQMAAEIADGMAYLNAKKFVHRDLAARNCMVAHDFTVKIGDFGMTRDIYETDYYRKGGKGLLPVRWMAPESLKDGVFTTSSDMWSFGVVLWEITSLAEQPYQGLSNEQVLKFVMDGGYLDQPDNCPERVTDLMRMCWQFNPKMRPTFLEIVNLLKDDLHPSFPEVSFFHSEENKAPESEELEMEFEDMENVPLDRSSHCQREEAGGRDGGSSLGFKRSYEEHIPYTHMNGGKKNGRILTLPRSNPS
Procedure, shortened: as §1

[3] = target: 140 purified human kinases (Homo sapiens, UniProt P07947)
Sequence of 140 purified human kinases (Homo sapiens, UniProt P07947) (P07947 whole entry): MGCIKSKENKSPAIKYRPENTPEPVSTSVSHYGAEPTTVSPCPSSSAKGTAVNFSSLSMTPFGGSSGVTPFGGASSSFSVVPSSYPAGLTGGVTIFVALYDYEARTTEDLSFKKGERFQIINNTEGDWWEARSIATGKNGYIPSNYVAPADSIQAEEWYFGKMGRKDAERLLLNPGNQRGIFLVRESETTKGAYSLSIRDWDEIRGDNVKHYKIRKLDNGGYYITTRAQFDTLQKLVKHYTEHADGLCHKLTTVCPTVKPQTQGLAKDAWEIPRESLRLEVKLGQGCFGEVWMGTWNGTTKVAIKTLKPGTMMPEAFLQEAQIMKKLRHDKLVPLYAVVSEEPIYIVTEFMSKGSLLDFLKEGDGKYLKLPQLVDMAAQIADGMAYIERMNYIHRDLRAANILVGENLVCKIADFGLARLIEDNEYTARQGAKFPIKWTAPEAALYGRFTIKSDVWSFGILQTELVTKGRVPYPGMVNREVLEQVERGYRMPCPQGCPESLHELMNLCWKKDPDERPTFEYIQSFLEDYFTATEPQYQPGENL
Procedure, shortened: as §1

[4] = target: 140 purified human kinases (Homo sapiens, UniProt P17612); conditions: PKA
Procedure, shortened: as §1

[5] = target: 140 purified human kinases (Homo sapiens, UniProt P23443)
Sequence of 140 purified human kinases (Homo sapiens, UniProt P23443) (P23443 whole entry): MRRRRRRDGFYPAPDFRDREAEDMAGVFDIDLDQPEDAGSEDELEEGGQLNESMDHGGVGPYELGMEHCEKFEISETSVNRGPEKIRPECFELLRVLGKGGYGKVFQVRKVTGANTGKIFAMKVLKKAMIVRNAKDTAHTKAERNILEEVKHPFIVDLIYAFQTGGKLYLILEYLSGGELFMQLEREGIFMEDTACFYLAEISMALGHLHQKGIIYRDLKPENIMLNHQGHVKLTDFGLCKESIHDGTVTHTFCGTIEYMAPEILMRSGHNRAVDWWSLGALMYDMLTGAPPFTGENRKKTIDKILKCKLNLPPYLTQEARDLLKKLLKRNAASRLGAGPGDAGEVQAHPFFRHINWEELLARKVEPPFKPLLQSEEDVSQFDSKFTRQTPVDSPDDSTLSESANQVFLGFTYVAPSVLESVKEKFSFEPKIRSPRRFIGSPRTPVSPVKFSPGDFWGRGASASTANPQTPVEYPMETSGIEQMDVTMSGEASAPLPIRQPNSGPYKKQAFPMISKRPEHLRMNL
Procedure, shortened: as §1

[6] = target: T1, 140 purified human kinases (Homo sapiens, UniProt P43403); conditions: for % Activity inhibition Mean / % Activity inhibition Run 1 / % Activity inhibition Run 2 / % Activity remaining Run 1 / % Activity remaining Run 2: 10 µM
T1 sequence (P43403 1-619): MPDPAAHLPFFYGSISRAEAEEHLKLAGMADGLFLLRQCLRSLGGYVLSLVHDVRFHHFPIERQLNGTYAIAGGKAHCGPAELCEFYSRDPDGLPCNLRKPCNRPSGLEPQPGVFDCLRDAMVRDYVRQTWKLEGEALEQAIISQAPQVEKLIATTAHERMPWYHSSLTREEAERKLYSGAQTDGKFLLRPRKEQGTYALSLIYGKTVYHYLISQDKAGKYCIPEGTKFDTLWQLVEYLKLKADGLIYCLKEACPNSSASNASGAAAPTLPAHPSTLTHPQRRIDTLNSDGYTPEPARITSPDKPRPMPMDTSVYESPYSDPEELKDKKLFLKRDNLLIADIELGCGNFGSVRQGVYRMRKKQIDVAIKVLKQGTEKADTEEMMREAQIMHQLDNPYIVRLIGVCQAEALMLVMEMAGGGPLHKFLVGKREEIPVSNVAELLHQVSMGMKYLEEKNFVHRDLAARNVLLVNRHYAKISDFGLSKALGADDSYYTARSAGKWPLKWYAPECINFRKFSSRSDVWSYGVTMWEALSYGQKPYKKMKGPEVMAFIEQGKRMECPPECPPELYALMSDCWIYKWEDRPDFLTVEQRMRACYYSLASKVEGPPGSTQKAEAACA
Procedure, shortened: as §1

[7] = target: T2, 140 purified human kinases (Homo sapiens, UniProt P54753)
T2 sequence (P54753 34-998): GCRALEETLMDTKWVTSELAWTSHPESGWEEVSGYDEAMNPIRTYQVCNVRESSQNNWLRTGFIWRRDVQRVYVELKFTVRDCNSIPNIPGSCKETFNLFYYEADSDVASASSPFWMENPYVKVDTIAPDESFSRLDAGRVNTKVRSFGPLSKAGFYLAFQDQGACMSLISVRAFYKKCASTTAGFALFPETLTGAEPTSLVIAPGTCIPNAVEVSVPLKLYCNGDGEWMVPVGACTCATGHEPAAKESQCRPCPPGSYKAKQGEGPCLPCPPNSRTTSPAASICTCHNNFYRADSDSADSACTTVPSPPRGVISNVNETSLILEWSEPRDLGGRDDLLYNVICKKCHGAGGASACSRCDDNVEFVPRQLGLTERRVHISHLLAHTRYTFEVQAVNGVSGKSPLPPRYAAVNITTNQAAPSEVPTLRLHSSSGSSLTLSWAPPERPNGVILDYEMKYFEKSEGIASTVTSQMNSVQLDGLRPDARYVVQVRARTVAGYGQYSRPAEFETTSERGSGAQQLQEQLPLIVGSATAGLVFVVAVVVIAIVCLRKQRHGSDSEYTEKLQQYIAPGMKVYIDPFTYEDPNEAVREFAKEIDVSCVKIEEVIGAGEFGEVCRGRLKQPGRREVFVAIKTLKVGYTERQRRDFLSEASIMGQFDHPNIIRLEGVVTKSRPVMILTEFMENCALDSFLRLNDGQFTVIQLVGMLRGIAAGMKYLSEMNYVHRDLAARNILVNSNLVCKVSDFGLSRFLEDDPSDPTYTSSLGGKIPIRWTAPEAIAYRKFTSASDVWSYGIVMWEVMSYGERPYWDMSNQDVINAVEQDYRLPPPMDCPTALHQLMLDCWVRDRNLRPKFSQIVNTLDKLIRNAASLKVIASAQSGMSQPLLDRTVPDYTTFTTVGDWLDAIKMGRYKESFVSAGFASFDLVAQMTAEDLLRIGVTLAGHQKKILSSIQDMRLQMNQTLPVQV
Procedure, shortened: as §1

[8] = target: 140 purified human kinases (Homo sapiens, UniProt P68400)
Sequence of 140 purified human kinases (Homo sapiens, UniProt P68400) (P68400 whole entry): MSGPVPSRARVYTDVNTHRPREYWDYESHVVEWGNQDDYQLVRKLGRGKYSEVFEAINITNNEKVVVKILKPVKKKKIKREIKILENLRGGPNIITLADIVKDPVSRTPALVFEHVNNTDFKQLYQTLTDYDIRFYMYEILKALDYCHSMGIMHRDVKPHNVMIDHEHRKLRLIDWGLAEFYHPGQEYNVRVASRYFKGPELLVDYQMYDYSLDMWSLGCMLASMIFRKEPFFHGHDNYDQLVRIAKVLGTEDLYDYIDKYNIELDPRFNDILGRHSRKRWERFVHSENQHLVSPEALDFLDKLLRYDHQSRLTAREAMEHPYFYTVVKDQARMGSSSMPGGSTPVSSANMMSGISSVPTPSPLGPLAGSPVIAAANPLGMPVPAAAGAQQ
Procedure, shortened: as §1

[9] = target: 140 purified human kinases (Homo sapiens, UniProt Q9P0L2)
Sequence of 140 purified human kinases (Homo sapiens, UniProt Q9P0L2) (Q9P0L2 whole entry): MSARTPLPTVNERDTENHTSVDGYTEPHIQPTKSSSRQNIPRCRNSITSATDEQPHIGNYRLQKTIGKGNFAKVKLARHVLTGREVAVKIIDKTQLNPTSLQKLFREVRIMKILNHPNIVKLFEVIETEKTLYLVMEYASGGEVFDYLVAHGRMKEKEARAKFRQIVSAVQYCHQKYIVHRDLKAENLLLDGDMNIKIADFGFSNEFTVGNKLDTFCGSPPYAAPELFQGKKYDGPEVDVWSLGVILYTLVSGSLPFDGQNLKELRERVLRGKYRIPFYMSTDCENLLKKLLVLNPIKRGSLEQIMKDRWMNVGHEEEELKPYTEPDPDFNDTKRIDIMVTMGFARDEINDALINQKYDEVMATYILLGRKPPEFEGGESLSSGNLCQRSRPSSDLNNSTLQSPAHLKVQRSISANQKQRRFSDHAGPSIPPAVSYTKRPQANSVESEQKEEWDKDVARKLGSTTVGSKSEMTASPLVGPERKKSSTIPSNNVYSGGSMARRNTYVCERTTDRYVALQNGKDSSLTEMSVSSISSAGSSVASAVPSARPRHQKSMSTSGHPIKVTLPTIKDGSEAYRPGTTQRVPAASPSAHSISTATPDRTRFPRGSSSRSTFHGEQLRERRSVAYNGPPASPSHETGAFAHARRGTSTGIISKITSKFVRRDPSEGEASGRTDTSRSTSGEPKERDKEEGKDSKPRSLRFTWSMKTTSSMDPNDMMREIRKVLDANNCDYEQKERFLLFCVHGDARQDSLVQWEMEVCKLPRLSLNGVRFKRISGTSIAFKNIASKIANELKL
Procedure, shortened: as §1

[Cu+2].[Cu+2].[Cu+2].c1ccc(-c2csc(NCCN(CCNc3nc(-c4ccccn4)cs3)CCNc3nc(-c4ccccn4)cs3)n2)nc1.c1ccc(-c2csc(NCCN(CCNc3nc(-c4ccccn4)cs3)CCNc3nc(-c4ccccn4)cs3)n2)nc1 [[L2Cu3]6+]
% Inhibition Run 1 ([1]; PAK4): 23.3% | % Inhibition Run 2 ([1]; PAK4): 36.6% | % Inhibition, Mean ([1]; PAK4): 30% | mean % activity ([1]; PAK4): 70% | % activity ([1]; PAK4, Run 1): 76.7% | % activity ([1]; PAK4, Run 2): 63.4% | % Inhibition Run 1 [2]: 20% | % Inhibition Run 2 [2]: 18.1% | % Inhibition, Mean [2]: 19% | mean % activity [2]: 81% | % activity ([2]; Run 1): 80% | % activity ([2]; Run 2): 81.9% | % Inhibition Run 1 ([3]; YES1): 12.4% | % Inhibition Run 2 ([3]; YES1): -9% | % Inhibition, Mean ([3]; YES1): 1.7% | mean % activity ([3]; YES1): 98% | % activity ([3]; YES1, Run 1): 87.6% | % activity ([3]; YES1, Run 2): 109% | % Inhibition Run 1 [4]: 46.4% | % Inhibition Run 2 [4]: 48.2% | % Inhibition, Mean [4]: 47% | mean % activity [4]: 53% | % activity ([4]; Run 1): 53.6% | % activity ([4]; Run 2): 51.8% | % Inhibition Run 1 ([5]; S6K1): 79% | % Inhibition Run 2 ([5]; S6K1): 89.6% | % Inhibition, Mean ([5]; S6K1): 84% | mean % activity ([5]; S6K1): 16% | % activity ([5]; S6K1, Run 1): 21% | % activity ([5]; S6K1, Run 2): 10.4% | % Inhibition Run 1 ([6]; ZAP70): 94% | % Inhibition Run 2 ([6]; ZAP70): 89.2% | % Inhibition, Mean ([6]; ZAP70): 92% | mean % activity ([6]; ZAP70): 8% | % activity ([6]; ZAP70, Run 1): 6% | % activity ([6]; ZAP70, Run 2): 10.8% | % Activity inhibition Mean ([6]; ZAP70): 91.6% | % Activity inhibition Run 1 ([6]; ZAP70): 94% | % Activity inhibition Run 2 ([6]; ZAP70): 89.2% | % Activity remaining Run 1 ([6]; ZAP70): 6.00% | % Activity remaining Run 2 ([6]; ZAP70): 10.80% | % Inhibition Run 1 ([7]; EPH-B3): 12.5% | % Inhibition Run 2 ([7]; EPH-B3): 19.2% | % Inhibition, Mean ([7]; EPH-B3): 16% | mean % activity ([7]; EPH-B3): 84% | % activity ([7]; EPH-B3, Run 1): 87.5% | % activity ([7]; EPH-B3, Run 2): 80.8% | % Inhibition Run 1 ([8]; CK2): -0.5% | % Inhibition Run 2 ([8]; CK2): 5.6% | % Inhibition, Mean ([8]; CK2): 2.55% | mean % activity ([8]; CK2): 97% | % activity ([8]; CK2, Run 1): 100.5% | % activity ([8]; CK2, Run 2): 94.4% | % Inhibition Run 1 ([9]; MARK1): 26.5% | % Inhibition Run 2 ([9]; MARK1): 16.9% | % Inhibition, Mean ([9]; MARK1): 22% | mean % activity ([9]; MARK1): 78% | % activity ([9]; MARK1, Run 1): 73.5% | % activity ([9]; MARK1, Run 2): 83.1%

CC(=O)[O-].CC(=O)[O-].CC(=O)[O-].CC(=O)[O-].CC(=O)[O-].CC(=O)[O-].[Zn+2].[Zn+2].[Zn+2].c1ccc(-c2csc(NCCN(CCNc3nc(-c4ccccn4)cs3)CCNc3nc(-c4ccccn4)cs3)n2)nc1.c1ccc(-c2csc(NCCN(CCNc3nc(-c4ccccn4)cs3)CCNc3nc(-c4ccccn4)cs3)n2)nc1 [[L2Zn3]6+]
% Activation, Mean value ([1]; PAK4): 20% | % Inhibition, Mean ([1]; PAK4): -20% | mean % activity ([1]; PAK4): 120% | % Activity Run 1 ([1]; PAK4, 10 µM): 110.0% | % Activity Run 2 ([1]; PAK4, 10 µM): 130.0% | % activity ([1]; PAK4, duplicate runs): 110% and 130% | % Inhibition, Mean [2]: 12% | mean % activity [2]: 88% | % activity ([2]; duplicate runs): 80% and 95% | % Inhibition, Mean ([3]; YES1): 8% | % Inhibition, Run 1 / Run 2 ([3]; YES1): 7% and 8% | mean % activity ([3]; YES1): 92% | % activity ([3]; YES1, duplicate runs): 93% and 92% | % Activation, Mean value [4]: 7% | % Inhibition, Mean [4]: -7% | mean % activity [4]: 107% | % activity ([4]; duplicate runs): 101% and 114% | % Inhibition, Mean ([5]; S6K1): 42% | mean % activity ([5]; S6K1): 58% | % activity ([5]; S6K1, duplicate runs): 43% and 74% | % Inhibition, Mean ([6]; ZAP70): 89% | % Inhibition, Run 1 / Run 2 ([6]; ZAP70): 91% and 88% | mean % activity ([6]; ZAP70): 11% | % Activity inhibition Mean ([6]; ZAP70): 89.0% | % Activity inhibition Run 1 ([6]; ZAP70): 90% | % Activity inhibition Run 2 ([6]; ZAP70): 88% | % Activity remaining Run 1 ([6]; ZAP70): 10% | % Activity remaining Run 2 ([6]; ZAP70): 12% | % activity ([6]; ZAP70, duplicate runs): 9.5% and 12% | % Inhibition, Mean ([7]; EPH-B3): 51% | % Inhibition, Run 1 / Run 2 ([7]; EPH-B3): 59% and 44% | mean % activity ([7]; EPH-B3): 49% | % activity ([7]; EPH-B3, duplicate runs): 41% and 56% | % Inhibition, Mean ([8]; CK2): 13% | % Inhibition, Run 1 / Run 2 ([8]; CK2): 15% and 12% | mean % activity ([8]; CK2): 87% | % activity ([8]; CK2, duplicate runs): 85% and 88% | % Inhibition, Mean ([9]; MARK1): 23% | % Inhibition, Run 1 / Run 2 ([9]; MARK1): 26% and 20% | mean % activity ([9]; MARK1): 77% | % activity ([9]; MARK1, duplicate runs): 74% and 80%
